Measurements published in ChEMBL document CHEMBL1909294, “Translating clinical findings into knowledge in drug safety evaluation--drug induced liver injury prediction system (DILIps)” (PLoS Comput Biol, 2011).

Experiments:
Hepatotoxicity [1] = system: Hepatotoxicity;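 for HepSE Combined Scores: combined hepatic side effect score as listed in the training data of the Drug Induced Liver Injury Prediction System (DILIps)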;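 for HepSE cholecystitis: Cholecystitis-related hepatic side effect score drawn from the DILIps (drug-induced liver injury prediction) training data set; call rule not given here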;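 for HepSE cholelithiasis: hepatic side effect score for cholelithiasis, drawn from the DILIps training data for predicting drug-induced liver injury; call rule not given here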;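 for HepSE cirrhosis: cirrhosis hepatic side effect score taken from the DILIps (drug-induced liver injury prediction) training set; call rule not given here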;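 for HepSE hepatitis: Hepatitis-related hepatic side effect score taken from the training data of DILIps, a prediction system for drug-induced liver injury; call rule not given here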;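 for HepSE liver function tests abnormal: hepatic side effect score taken from the DILIps (drug-induced liver injury prediction system) training data, here covering abnormal liver function test findings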
Hepatotoxicity [2] = system: Hepatotoxicity; remark: listed apart in the source;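 for HepSE Combined Scores: combined hepatic side effect score as listed in the training data of the Drug Induced Liver Injury Prediction System (DILIps)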;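 for HepSE cholecystitis: Cholecystitis-related hepatic side effect score drawn from the DILIps (drug-induced liver injury prediction) training data set; call rule not given here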;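 for HepSE cholelithiasis: hepatic side effect score for cholelithiasis, drawn from the DILIps training data for predicting drug-induced liver injury; call rule not given here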;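 for HepSE cirrhosis: cirrhosis hepatic side effect score taken from the DILIps (drug-induced liver injury prediction) training set; call rule not given here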;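 for HepSE hepatitis: Hepatitis-related hepatic side effect score taken from the training data of DILIps, a prediction system for drug-induced liver injury; call rule not given here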;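 for HepSE liver function tests abnormal: hepatic side effect score taken from the DILIps (drug-induced liver injury prediction system) training data, here covering abnormal liver function test findings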
Hepatotoxicity [3] = system: Hepatotoxicity; remark: listed apart in the source;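 for HepSE Combined Scores: combined hepatic side effect score as listed in the training data of the Drug Induced Liver Injury Prediction System (DILIps)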;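 for HepSE cholecystitis: Cholecystitis-related hepatic side effect score drawn from the DILIps (drug-induced liver injury prediction) training data set; call rule not given here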;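 for HepSE cholelithiasis: hepatic side effect score for cholelithiasis, drawn from the DILIps training data for predicting drug-induced liver injury; call rule not given here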;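 for HepSE cirrhosis: cirrhosis hepatic side effect score taken from the DILIps (drug-induced liver injury prediction) training set; call rule not given here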;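 for HepSE hepatitis: Hepatitis-related hepatic side effect score taken from the training data of DILIps, a prediction system for drug-induced liver injury; call rule not given here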;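 for HepSE liver function tests abnormal: hepatic side effect score taken from the DILIps (drug-induced liver injury prediction system) training data, here covering abnormal liver function test findings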
Hepatotoxicity [4] = system: Hepatotoxicity; remark: listed apart in the source;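 for HepSE Combined Scores: combined hepatic side effect score as listed in the training data of the Drug Induced Liver Injury Prediction System (DILIps)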;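 for HepSE cholecystitis: Cholecystitis-related hepatic side effect score drawn from the DILIps (drug-induced liver injury prediction) training data set; call rule not given here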;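 for HepSE cholelithiasis: hepatic side effect score for cholelithiasis, drawn from the DILIps training data for predicting drug-induced liver injury; call rule not given here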;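 for HepSE cirrhosis: cirrhosis hepatic side effect score taken from the DILIps (drug-induced liver injury prediction) training set; call rule not given here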;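 for HepSE liver function tests abnormal: hepatic side effect score taken from the DILIps (drug-induced liver injury prediction system) training data, here covering abnormal liver function test findings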
Hepatotoxicity [5] = system: Hepatotoxicity; remark: listed apart in the source
Hepatotoxicity [6] = system: Hepatotoxicity; remark: listed apart in the source
Hepatotoxicity [7] = system: Hepatotoxicity; remark: listed apart in the source
Hepatotoxicity [8] = system: Hepatotoxicity; remark: listed apart in the source
Hepatotoxicity [9] = system: Hepatotoxicity; remark: listed apart in the source
Hepatotoxicity [10] = system: Hepatotoxicity; remark: listed apart in the source
Hepatotoxicity [11] = system: Hepatotoxicity; remark: listed apart in the source
Hepatotoxicity [12] = system: Hepatotoxicity; remark: listed apart in the source
Hepatotoxicity [13] = system: Hepatotoxicity; remark: listed apart in the source
Hepatotoxicity [14] = system: Hepatotoxicity; remark: listed apart in the source

Compound: CO[C@]12CC[C@@]3(C[C@@H]1[C@](C)(O)C(C)(C)C)[C@H]1Cc4ccc(O)c5c4[C@@]3(CCN1CC1CC1)[C@H]2O5 [BUPRENORPHINE]
- HepSE_liver function tests abnormal (Hepatotoxicity [1]): 0
- HepSE_cholelithiasis (Hepatotoxicity [2]): 0
- HepSE_Combined Scores (Hepatotoxicity [3]): 0
- HepSE_cholecystitis (Hepatotoxicity [4]): 0
- HepSE_cirrhosis (Hepatotoxicity [5]): 0
- HepSE_hepatitis (Hepatotoxicity [6]): 0
- HepSE_elevated liver function tests (Hepatotoxicity [7]): 0
- HepSE_hepatic necrosis (Hepatotoxicity [8]): 0
- HepSE_jaundice (Hepatotoxicity [9]): 0
- HepSE_liver disease (Hepatotoxicity [10]): 0
- HepSE_hepatomegaly (Hepatotoxicity [11]): 0
- HepSE_bilirubinemia (Hepatotoxicity [12]): 0
- HepSE_liver fatty (Hepatotoxicity [13]): 0
- HepSE_hepatic failure (Hepatotoxicity [14]): 0

Compound: GADODIAMIDE
- HepSE_liver function tests abnormal (Hepatotoxicity [1]): 0
- HepSE_cholelithiasis (Hepatotoxicity [2]): 0
- HepSE_Combined Scores (Hepatotoxicity [3]): 0
- HepSE_cholecystitis (Hepatotoxicity [4]): 0
- HepSE_cirrhosis (Hepatotoxicity [5]): 0
- HepSE_hepatitis (Hepatotoxicity [6]): 0
- HepSE_elevated liver function tests (Hepatotoxicity [7]): 0
- HepSE_hepatic necrosis (Hepatotoxicity [8]): 0
- HepSE_jaundice (Hepatotoxicity [9]): 0
- HepSE_liver disease (Hepatotoxicity [10]): 0
- HepSE_hepatomegaly (Hepatotoxicity [11]): 0
- HepSE_bilirubinemia (Hepatotoxicity [12]): 0
- HepSE_liver fatty (Hepatotoxicity [13]): 0
- HepSE_hepatic failure (Hepatotoxicity [14]): 0

Compound: C=C(CC)C(=O)c1ccc(OCC(=O)O)c(Cl)c1Cl [ETHACRYNIC ACID]
- HepSE_liver function tests abnormal (Hepatotoxicity [1]): 1
- HepSE_cholelithiasis (Hepatotoxicity [2]): 0
- HepSE_Combined Scores (Hepatotoxicity [3]): 2
- HepSE_cholecystitis (Hepatotoxicity [4]): 0
- HepSE_cirrhosis (Hepatotoxicity [5]): 0
- HepSE_hepatitis (Hepatotoxicity [6]): 0
- HepSE_elevated liver function tests (Hepatotoxicity [7]): 0
- HepSE_hepatic necrosis (Hepatotoxicity [8]): 0
- HepSE_jaundice (Hepatotoxicity [9]): 1
- HepSE_liver disease (Hepatotoxicity [10]): 0
- HepSE_hepatomegaly (Hepatotoxicity [11]): 0
- HepSE_bilirubinemia (Hepatotoxicity [12]): 0
- HepSE_liver fatty (Hepatotoxicity [13]): 0
- HepSE_hepatic failure (Hepatotoxicity [14]): 0

Compound: C[N+](C)(C)CCOC(N)=O.[Cl-] [CARBACHOL]
- HepSE_liver function tests abnormal (Hepatotoxicity [1]): 0
- HepSE_cholelithiasis (Hepatotoxicity [2]): 0
- HepSE_Combined Scores (Hepatotoxicity [3]): 0
- HepSE_cholecystitis (Hepatotoxicity [4]): 0
- HepSE_cirrhosis (Hepatotoxicity [5]): 0
- HepSE_hepatitis (Hepatotoxicity [6]): 0
- HepSE_elevated liver function tests (Hepatotoxicity [7]): 0
- HepSE_hepatic necrosis (Hepatotoxicity [8]): 0
- HepSE_jaundice (Hepatotoxicity [9]): 0
- HepSE_liver disease (Hepatotoxicity [10]): 0
- HepSE_hepatomegaly (Hepatotoxicity [11]): 0
- HepSE_bilirubinemia (Hepatotoxicity [12]): 0
- HepSE_liver fatty (Hepatotoxicity [13]): 0
- HepSE_hepatic failure (Hepatotoxicity [14]): 0

Compound: CN(CCOc1ccc(NS(C)(=O)=O)cc1)CCc1ccc(NS(C)(=O)=O)cc1 [DOFETILIDE]
- HepSE_liver function tests abnormal (Hepatotoxicity [1]): 0
- HepSE_cholelithiasis (Hepatotoxicity [2]): 0
- HepSE_Combined Scores (Hepatotoxicity [3]): 0
- HepSE_cholecystitis (Hepatotoxicity [4]): 0
- HepSE_cirrhosis (Hepatotoxicity [5]): 0
- HepSE_hepatitis (Hepatotoxicity [6]): 0
- HepSE_elevated liver function tests (Hepatotoxicity [7]): 0
- HepSE_hepatic necrosis (Hepatotoxicity [8]): 0
- HepSE_jaundice (Hepatotoxicity [9]): 0
- HepSE_liver disease (Hepatotoxicity [10]): 0
- HepSE_hepatomegaly (Hepatotoxicity [11]): 0
- HepSE_bilirubinemia (Hepatotoxicity [12]): 0
- HepSE_liver fatty (Hepatotoxicity [13]): 0
- HepSE_hepatic failure (Hepatotoxicity [14]): 0

Compound: CC(C)OC(=O)CCC/C=C\C[C@@H]1[C@@H](CC[C@@H](O)CCc2ccccc2)[C@H](O)C[C@@H]1O [LATANOPROST]
- HepSE_liver function tests abnormal (Hepatotoxicity [1]): 0
- HepSE_cholelithiasis (Hepatotoxicity [2]): 0
- HepSE_Combined Scores (Hepatotoxicity [3]): 0
- HepSE_cholecystitis (Hepatotoxicity [4]): 0
- HepSE_cirrhosis (Hepatotoxicity [5]): 0
- HepSE_hepatitis (Hepatotoxicity [6]): 0
- HepSE_elevated liver function tests (Hepatotoxicity [7]): 0
- HepSE_hepatic necrosis (Hepatotoxicity [8]): 0
- HepSE_jaundice (Hepatotoxicity [9]): 0
- HepSE_liver disease (Hepatotoxicity [10]): 0
- HepSE_hepatomegaly (Hepatotoxicity [11]): 0
- HepSE_bilirubinemia (Hepatotoxicity [12]): 0
- HepSE_liver fatty (Hepatotoxicity [13]): 0
- HepSE_hepatic failure (Hepatotoxicity [14]): 0

Compound: CC(C)(C(=O)c1cccnc1)c1cccnc1 [METYRAPONE]
- HepSE_liver function tests abnormal (Hepatotoxicity [1]; Liver): 0
- HepSE_cholelithiasis (Hepatotoxicity [2]; Liver): 0
- HepSE_Combined Scores (Hepatotoxicity [3]; Liver): 0
- HepSE_cholecystitis (Hepatotoxicity [4]; Liver): 0
- HepSE_cirrhosis (Hepatotoxicity [5]; Liver): 0
- HepSE_hepatitis (Hepatotoxicity [6]; Liver): 0
- HepSE_elevated liver function tests (Hepatotoxicity [7]; Liver): 0
- HepSE_hepatic necrosis (Hepatotoxicity [8]; Liver): 0
- HepSE_jaundice (Hepatotoxicity [9]; Liver): 0
- HepSE_liver disease (Hepatotoxicity [10]; Liver): 0
- HepSE_hepatomegaly (Hepatotoxicity [11]; Liver): 0
- HepSE_bilirubinemia (Hepatotoxicity [12]; Liver): 0
- HepSE_liver fatty (Hepatotoxicity [13]; Liver): 0
- HepSE_hepatic failure (Hepatotoxicity [14]; Liver): 0

Compound: Cc1nccn1CC1CCc2c(c3ccccc3n2C)C1=O (configuration not stated) [ONDANSETRON]
- HepSE_liver function tests abnormal (Hepatotoxicity [1]): 0
- HepSE_cholelithiasis (Hepatotoxicity [2]): 0
- HepSE_Combined Scores (Hepatotoxicity [3]): 2
- HepSE_cholecystitis (Hepatotoxicity [4]): 0
- HepSE_cirrhosis (Hepatotoxicity [5]): 0
- HepSE_hepatitis (Hepatotoxicity [6]): 0
- HepSE_elevated liver function tests (Hepatotoxicity [7]): 0
- HepSE_hepatic necrosis (Hepatotoxicity [8]): 0
- HepSE_jaundice (Hepatotoxicity [9]): 0
- HepSE_liver disease (Hepatotoxicity [10]): 1
- HepSE_hepatomegaly (Hepatotoxicity [11]): 0
- HepSE_bilirubinemia (Hepatotoxicity [12]): 0
- HepSE_liver fatty (Hepatotoxicity [13]): 0
- HepSE_hepatic failure (Hepatotoxicity [14]): 1

Compound: CCN(CC)CCOC(=O)C1(C2CCCCC2)CCCCC1 [DICYCLOMINE]
- HepSE_liver function tests abnormal (Hepatotoxicity [1]; Liver): 0
- HepSE_cholelithiasis (Hepatotoxicity [2]): 0
- HepSE_Combined Scores (Hepatotoxicity [3]): 0
- HepSE_cholecystitis (Hepatotoxicity [4]): 0
- HepSE_cirrhosis (Hepatotoxicity [5]): 0
- HepSE_hepatitis (Hepatotoxicity [6]): 0
- HepSE_elevated liver function tests (Hepatotoxicity [7]; Liver): 0
- HepSE_hepatic necrosis (Hepatotoxicity [8]): 0
- HepSE_jaundice (Hepatotoxicity [9]): 0
- HepSE_liver disease (Hepatotoxicity [10]): 0
- HepSE_hepatomegaly (Hepatotoxicity [11]): 0
- HepSE_bilirubinemia (Hepatotoxicity [12]): 0
- HepSE_liver fatty (Hepatotoxicity [13]): 0
- HepSE_hepatic failure (Hepatotoxicity [14]): 0

Compound: CCCc1cc(=O)[nH]c(=S)[nH]1 [PROPYLTHIOURACIL]
- HepSE_liver function tests abnormal (Hepatotoxicity [1]; Liver): 0
- HepSE_cholelithiasis (Hepatotoxicity [2]; Liver): 0
- HepSE_Combined Scores (Hepatotoxicity [3]; Liver): 2
- HepSE_cholecystitis (Hepatotoxicity [4]; Liver): 0
- HepSE_cirrhosis (Hepatotoxicity [5]; Liver): 0
- HepSE_hepatitis (Hepatotoxicity [6]; Liver): 1
- HepSE_elevated liver function tests (Hepatotoxicity [7]; Liver): 0
- HepSE_hepatic necrosis (Hepatotoxicity [8]; Liver): 0
- HepSE_jaundice (Hepatotoxicity [9]; Liver): 1
- HepSE_liver disease (Hepatotoxicity [10]; Liver): 0
- HepSE_hepatomegaly (Hepatotoxicity [11]; Liver): 0
- HepSE_bilirubinemia (Hepatotoxicity [12]; Liver): 0
- HepSE_liver fatty (Hepatotoxicity [13]; Liver): 0
- HepSE_hepatic failure (Hepatotoxicity [14]; Liver): 0

Compound: NCCCCCC(=O)O [AMINOCAPROIC ACID]
- HepSE_liver function tests abnormal (Hepatotoxicity [1]): 0
- HepSE_cholelithiasis (Hepatotoxicity [2]): 0
- HepSE_Combined Scores (Hepatotoxicity [3]): 0
- HepSE_cholecystitis (Hepatotoxicity [4]): 0
- HepSE_cirrhosis (Hepatotoxicity [5]): 0
- HepSE_hepatitis (Hepatotoxicity [6]): 0
- HepSE_elevated liver function tests (Hepatotoxicity [7]): 0
- HepSE_hepatic necrosis (Hepatotoxicity [8]): 0
- HepSE_jaundice (Hepatotoxicity [9]): 0
- HepSE_liver disease (Hepatotoxicity [10]): 0
- HepSE_hepatomegaly (Hepatotoxicity [11]): 0
- HepSE_bilirubinemia (Hepatotoxicity [12]): 0
- HepSE_liver fatty (Hepatotoxicity [13]): 0
- HepSE_hepatic failure (Hepatotoxicity [14]): 0

Compound: C[C@H](Cn1cnc2c(N)ncnc21)OCP(=O)(O)O [TENOFOVIR ANHYDROUS]
- HepSE_liver function tests abnormal (Hepatotoxicity [1]): 0
- HepSE_cholelithiasis (Hepatotoxicity [2]): 0
- HepSE_Combined Scores (Hepatotoxicity [3]): 2
- HepSE_cholecystitis (Hepatotoxicity [4]): 0
- HepSE_cirrhosis (Hepatotoxicity [5]): 0
- HepSE_hepatitis (Hepatotoxicity [6]): 1
- HepSE_elevated liver function tests (Hepatotoxicity [7]): 0
- HepSE_hepatic necrosis (Hepatotoxicity [8]): 0
- HepSE_jaundice (Hepatotoxicity [9]): 0
- HepSE_liver disease (Hepatotoxicity [10]): 0
- HepSE_hepatomegaly (Hepatotoxicity [11]): 0
- HepSE_bilirubinemia (Hepatotoxicity [12]): 0
- HepSE_liver fatty (Hepatotoxicity [13]): 1
- HepSE_hepatic failure (Hepatotoxicity [14]): 0

Compound: C[C@@H](c1ncncc1F)[C@](O)(Cn1cncn1)c1ccc(F)cc1F [VORICONAZOLE]
- HepSE_liver function tests abnormal (Hepatotoxicity [1]): 1
- HepSE_cholelithiasis (Hepatotoxicity [2]): 1
- HepSE_Combined Scores (Hepatotoxicity [3]): 10
- HepSE_cholecystitis (Hepatotoxicity [4]): 1
- HepSE_cirrhosis (Hepatotoxicity [5]): 0
- HepSE_hepatitis (Hepatotoxicity [6]): 1
- HepSE_elevated liver function tests (Hepatotoxicity [7]): 1
- HepSE_hepatic necrosis (Hepatotoxicity [8]): 0
- HepSE_jaundice (Hepatotoxicity [9]): 1
- HepSE_liver disease (Hepatotoxicity [10]): 1
- HepSE_hepatomegaly (Hepatotoxicity [11]): 1
- HepSE_bilirubinemia (Hepatotoxicity [12]): 1
- HepSE_liver fatty (Hepatotoxicity [13]): 0
- HepSE_hepatic failure (Hepatotoxicity [14]): 1
